Read-outs that look alike come from different tables or passages of the source.
Assays:
[1] = tested on: wild type cells (strain DBY746)
[2] = tested on: aconitase; experiment: aconitase inactivation after treatment of yeast cells; format: cell-based, Saccharomyces cerevisiae; conditions: wild type cells; 1 μM antimycin A or 1 mM paraquat; data not shown
Experimental: Cells were inoculated at an OD600 of 0.1 in SDC medium and harvested at the indicated times. Whole cell extracts were obtained by glass bead lysis under argon in 50 mM Tris 7.2, 150 mM NaCl, 5 mM EDTA, and 0.2 mM PMSF with an equal volume of 0.5 mm acid washed glass beads, and vortexing for 6 cycles of 30 seconds followed by 2 minutes of cooling. After centrifugation, the supernatants were aliquoted, flash frozen, and stored at −70° C. Because of the instability of 4Fe4S clusters in air, the extraction procedures were performed as rapidly as possible, under an inert atmosphere (argon). Furthermore, aliquots kept at −70° C. were only thawed immediately before the assay. Aconitase activity was measured spectrophotometrically as described (S. Melov, et al., Science 289, 1567-9 (2000)). Briefly, the linear absorbance change at 240 nm (cis-aconitate disappearance) was followed in a reaction mixture containing 1 mM cis-aconitate, 0.5 M NaCl, and 0.1 M Tris 7.4. For iron-sulfur cluster reactivation experiments, 1 mM ferric sulfate and 1 mM sodium sulfide (Na2S) was added to the cuvette containing all the reagents required for the aconitase assay. Activity was measured as described above.

[3] = tested on: ras2Δ (EG252) cells; conditions: ras2 mutants; paraquat 1 mM, 7-day treatment
[4] = tested on: sod2Δ mutants

Row | Molecule | effect on survival (viability) of wild type cells [1] | toxicity to wild type cells [1] | survival after paraquat treatment ([1]; Saccharomyces cerevisiae) [%] | effect on aconitase [2] | initial viability retained after paraquat treatment [3] | toxicity to sod2Δ mutants ([4]; effect on life span) | toxicity to sod2Δ mutants [4]
1 | C[n+]1ccc(-c2cc[n+](C)cc2)cc1 [paraquat] | early viability loss | toxic | 5 | reversibly inactivates aconitase | over 70% | particularly toxic | –
2 | antimycin A | early viability loss | toxic | – | reversibly inactivates aconitase | – | – | particularly toxic

Source: patent US20030044946A1 (priority 2001, published 2003)
